In patent US5698672A, “Synthetic calcitonin mimetics” (ZymoGenetics, Inc., priority 1995, dated 1997):
[ ]: non-standard residue; d: D form. Aib = CC(C)(N)C(=O)O

Key:
[1] = system: calcitonin receptor; experiment: CRE-luciferase assay for calcitonin mimetics (calcitonin receptor-positive cell line, Hollex-1 or Boris/KZ10); format: cell-based; settings: calcitonin receptor-positive cells; cell line not given; read-out: CRE-Luciferase Induction EC50
Source text: All synthetic calcitonin mimetics are subjected to an assay system that permits rapid identification of substances having selective calcitonin receptor activity on cells expressing the calcitonin receptor. Only those modifications which retain calcitonin-like activity, as assayed by the CRE-luciferase assay for example, are within the scope of this invention. The calcitonin receptor is a member of the G-protein receptor family and transduces signal via activation of adenylate cyclase, leading to elevation of cellular cAMP levels (Lin et al., Science 254:1022-24, 1991). This assay system exploits the receptor's ability to elevate cAMP levels as a way to detect other molecules, not calcitonin, that are able to stimulate the calcitonin receptor and initiate signal transduction.

[2] = system: PTH induced bone resorption in mouse calvariae; experiment: Calvarial assay: PTH induced bone resorption, calcium release; format: cell-based; settings: 1 nM PTH 1-34, 72 hours, neonatal mouse calvariae; read-out: Inhibition of Ca++ Release EC50
Experimental: Calvaria from 4-day old neonatal CD-1 mice (pregnant mice received from Charles River Laboratories, Wilmington, Mass.) were trimmed with fine-tipped scissors to leave the parietal regions, including the sagittal suture. These trimmed bones were placed singly per well into 6-well cell culture cluster plates (Costar, Pleasanton, Calif.) with 1 ml/well of growth medium (DMEM (BioWhittaker, Walkersville, Md.) with 4.5 g/L glucose, 0.29 mg/ml L-glutamine, 1 mM sodium pyruvate, 15% heat-inactivated horse serum, and antibiotics (penicillin-G […], streptomycin […], and neomycin […])), and rocked gently (RedRocker™, model PR50-115V) (Hoefer, San Francisco, Calif.) at 37° C. in a 5% CO2 humidified incubator for 24 hours preincubation.
Following incubation, medium was removed and replaced with 1.5 ml/well of growth medium containing 1 nM parathyroid hormone (PTH) 1-34 (Sigma) to stimulate bone resorption. For evaluation of the ability of synthetic calcitonin mimetics to inhibit PTH induced bone resorption, mimetic compounds in DMSO were added to the growth medium at concentrations ranging from […] (final assay concentration of DMSO less than or equal to 1%). In each experiment human calcitonin (0.02-20 nM, 0.2-2 nM preferred) was added to PTH treated bones as a positive control. […]

[3] = system: osteoclasts in mouse calvariae; experiment: Calvaria histology: osteoclast number and size; format: cell-based; settings: PTH induced bone resorption in mouse calvariae
Source text: To confirm the findings in the calvarial bone resorption assay employing calcium release from culture mouse calvariae, selected bones were fixed in 10% neutral buffered formalin and demineralized in 5% formic acid with 5% formalin. The bones were dehydrated through an ascending series of ethanol concentrations, infiltrated in glycol methacrylate, and embedded using a JB-4 embedding kit (PolySciences, Warrington, Pa.) (Liu and Kalu, J. Bone Miner. Res., 5:973-82, 1990). Cross sections of calvariae cut at […] were obtained and stained for tartrate-resistant acid phosphatase (TRAP) activity and counterstained with methyl green and thionin for cell morphology (Liu and Kalu, J. Bone. Miner. Res. 1990, supra). osteoclasts were identified by TRAP stain, multinucleation, large cell size, and irregular cell shape. The number of osteoclasts were counted from endocranial and ectocranial bone surfaces and expressed as number/mm perimeter. The size of all the osteoclasts counted was also measured using a Bone Morphometry program (Lui and Kalu, supra.; Bain et al., J. Bone Miner. Res. 8:435-42, 1993). […] This PTH-induced increase was suppressed by treatment with human calcitonin.
Calcitonin mimetic compounds were evaluated in a similar fashion for their ability to suppress PTH-induced increases in osteoclast number and size. Cell toxicity (or death) was also evaluated morphologically. […]

[4] = molecular target: hamster calcitonin receptor (Mesocricetus auratus, UniProt A0A3Q0D7K7); experiment: CRE-luciferase induction in Boris/KZ10-3 cells (hamster calcitonin receptor)
[5] = system: KZ10-20-48/Zem 228 (calcitonin receptor-negative BHK cells); experiment: CRE-luciferase induction in receptor-negative KZ10-20-48/Zem 228 cells; settings: Mesocricetus auratus, read-out: EC50, CRE-luciferase induction
[6] = molecular target: human glucagon receptor (Homo sapiens, UniProt P47871); settings: KZ10-20-48/pLJ6-4-25
[7] = molecular target: T1, human calcitonin receptor (Homo sapiens, UniProt P30988); experiment: CRE-luciferase induction in Hollex-1 cells (BHK, human calcitonin receptor); format: cell-based
T1 construct: expressed in transfected cells; host or cells: BHK 570 derivative KZ10-20-48 (clone Hollex-1)
T1 sequence (P30988 25-474): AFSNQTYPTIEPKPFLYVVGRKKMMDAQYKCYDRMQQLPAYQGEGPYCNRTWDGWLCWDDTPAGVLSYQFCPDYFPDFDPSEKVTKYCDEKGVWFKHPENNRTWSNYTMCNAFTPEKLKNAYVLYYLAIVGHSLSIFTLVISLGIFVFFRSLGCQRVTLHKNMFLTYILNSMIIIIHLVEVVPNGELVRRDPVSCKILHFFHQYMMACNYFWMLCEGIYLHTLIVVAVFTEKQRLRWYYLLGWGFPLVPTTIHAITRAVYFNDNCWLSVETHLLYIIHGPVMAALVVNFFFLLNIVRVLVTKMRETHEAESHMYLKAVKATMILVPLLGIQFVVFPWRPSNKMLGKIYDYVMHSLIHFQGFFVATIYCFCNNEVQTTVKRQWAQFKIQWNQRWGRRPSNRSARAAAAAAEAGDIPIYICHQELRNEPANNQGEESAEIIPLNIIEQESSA

[8] = system: KZ10-20-48 (BHK 570 cells with CRE-luciferase reporter); experiment: CRE-luciferase induction in BHK/KZ10-20-48 cells; format: cell-based, hamster; settings: clone KZ10-20-48; 25 mM forskolin, 4 hours; range 15-25 fold

Sequence of human glucagon receptor (P47871 26-477): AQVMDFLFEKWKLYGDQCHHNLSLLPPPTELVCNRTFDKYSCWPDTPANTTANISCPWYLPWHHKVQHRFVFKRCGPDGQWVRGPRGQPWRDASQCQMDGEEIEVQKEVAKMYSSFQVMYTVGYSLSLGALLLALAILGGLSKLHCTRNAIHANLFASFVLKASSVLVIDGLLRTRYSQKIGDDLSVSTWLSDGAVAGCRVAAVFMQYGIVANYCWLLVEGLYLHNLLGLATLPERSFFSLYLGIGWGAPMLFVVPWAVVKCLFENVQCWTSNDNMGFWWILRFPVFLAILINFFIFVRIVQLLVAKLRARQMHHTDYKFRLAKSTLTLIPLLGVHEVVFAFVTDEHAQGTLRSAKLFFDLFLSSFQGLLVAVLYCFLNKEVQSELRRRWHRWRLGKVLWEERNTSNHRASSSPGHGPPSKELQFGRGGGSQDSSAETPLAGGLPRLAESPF
Sequence of hamster calcitonin receptor (A0A3Q0D7K7 entry or part of it): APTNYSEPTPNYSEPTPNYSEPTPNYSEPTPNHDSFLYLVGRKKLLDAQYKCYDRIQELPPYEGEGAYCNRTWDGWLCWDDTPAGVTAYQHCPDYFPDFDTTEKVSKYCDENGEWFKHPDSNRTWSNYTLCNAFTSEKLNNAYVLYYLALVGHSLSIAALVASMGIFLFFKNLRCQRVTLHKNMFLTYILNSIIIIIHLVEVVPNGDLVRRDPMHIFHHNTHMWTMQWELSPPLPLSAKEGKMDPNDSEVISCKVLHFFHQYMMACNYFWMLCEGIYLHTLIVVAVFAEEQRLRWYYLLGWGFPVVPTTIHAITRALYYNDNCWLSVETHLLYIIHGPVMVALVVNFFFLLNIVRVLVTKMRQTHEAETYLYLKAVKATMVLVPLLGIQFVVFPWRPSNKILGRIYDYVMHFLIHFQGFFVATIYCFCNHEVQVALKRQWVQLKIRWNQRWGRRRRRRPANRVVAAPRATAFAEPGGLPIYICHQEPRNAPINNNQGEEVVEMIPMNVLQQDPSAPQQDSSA

EC50 [1] [nM]	EC50 [2] [nM]	Compound	Histology [3]	induction of luciferase [4] [fold]	EC50 [5] [nM]	induction of luciferase [6] [fold]	EC50 [7] [nM]	induction of CRE-luciferase [8] [fold]
2280	36000	Ac-W[Aib]Q[Aib]IT[Aib]L[Aib]PQ[Aib]PF-OH [Synthetic 2807]	Inhibitory	–	–	–	–	–
–	–	C=C[C@@]1(C)CC(=O)[C@]2(O)[C@@]3(C)[C@@H](O)CCC(C)(C)[C@@H]3[C@H](O)[C@H](OC(C)=O)[C@@]2(C)O1 [forskolin]	–	25	600	35	1200	20
